Laboratory results taken from publication PMC7827406, “Structure–Activity Relationship (SAR) Study of Spautin-1 to Entail the Discovery of Novel NEK4 Inhibitors” (International Journal of Molecular Sciences, 2021).
Read-outs that look alike come from different tables or passages of the source.

Key:
Assay in all cases: biochemical
Design in all cases: Eurofins KinaseProfiler full panel at Km ATP, residual kinase activity (%) relative to DMSO
FAK(h) = target: T1, FAK(h) (Homo sapiens, UniProt Q05397)
T1 construct: gene PTK2
Procedure, shortened: (§1)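 Radiometric kinase activity assays were run with ATP at Km and compounds at 10 µM, and remaining activity (%) was reported. A separate competitive binding screen measured DNA-tagged kinase displaced from immobilized active-site ligands by qPCR, giving percent kinase still bound at 10 µM compound in DMSO.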

JNK3(h) = target: T2, JNK3(h) (Homo sapiens, UniProt P53779)
T2 construct: gene MAPK10
Procedure, shortened: as §1

MYO3B(h) = target: T3, MYO3B(h) (Homo sapiens, UniProt Q8WXR4)
T3 sequence (Q8WXR4 1-1341): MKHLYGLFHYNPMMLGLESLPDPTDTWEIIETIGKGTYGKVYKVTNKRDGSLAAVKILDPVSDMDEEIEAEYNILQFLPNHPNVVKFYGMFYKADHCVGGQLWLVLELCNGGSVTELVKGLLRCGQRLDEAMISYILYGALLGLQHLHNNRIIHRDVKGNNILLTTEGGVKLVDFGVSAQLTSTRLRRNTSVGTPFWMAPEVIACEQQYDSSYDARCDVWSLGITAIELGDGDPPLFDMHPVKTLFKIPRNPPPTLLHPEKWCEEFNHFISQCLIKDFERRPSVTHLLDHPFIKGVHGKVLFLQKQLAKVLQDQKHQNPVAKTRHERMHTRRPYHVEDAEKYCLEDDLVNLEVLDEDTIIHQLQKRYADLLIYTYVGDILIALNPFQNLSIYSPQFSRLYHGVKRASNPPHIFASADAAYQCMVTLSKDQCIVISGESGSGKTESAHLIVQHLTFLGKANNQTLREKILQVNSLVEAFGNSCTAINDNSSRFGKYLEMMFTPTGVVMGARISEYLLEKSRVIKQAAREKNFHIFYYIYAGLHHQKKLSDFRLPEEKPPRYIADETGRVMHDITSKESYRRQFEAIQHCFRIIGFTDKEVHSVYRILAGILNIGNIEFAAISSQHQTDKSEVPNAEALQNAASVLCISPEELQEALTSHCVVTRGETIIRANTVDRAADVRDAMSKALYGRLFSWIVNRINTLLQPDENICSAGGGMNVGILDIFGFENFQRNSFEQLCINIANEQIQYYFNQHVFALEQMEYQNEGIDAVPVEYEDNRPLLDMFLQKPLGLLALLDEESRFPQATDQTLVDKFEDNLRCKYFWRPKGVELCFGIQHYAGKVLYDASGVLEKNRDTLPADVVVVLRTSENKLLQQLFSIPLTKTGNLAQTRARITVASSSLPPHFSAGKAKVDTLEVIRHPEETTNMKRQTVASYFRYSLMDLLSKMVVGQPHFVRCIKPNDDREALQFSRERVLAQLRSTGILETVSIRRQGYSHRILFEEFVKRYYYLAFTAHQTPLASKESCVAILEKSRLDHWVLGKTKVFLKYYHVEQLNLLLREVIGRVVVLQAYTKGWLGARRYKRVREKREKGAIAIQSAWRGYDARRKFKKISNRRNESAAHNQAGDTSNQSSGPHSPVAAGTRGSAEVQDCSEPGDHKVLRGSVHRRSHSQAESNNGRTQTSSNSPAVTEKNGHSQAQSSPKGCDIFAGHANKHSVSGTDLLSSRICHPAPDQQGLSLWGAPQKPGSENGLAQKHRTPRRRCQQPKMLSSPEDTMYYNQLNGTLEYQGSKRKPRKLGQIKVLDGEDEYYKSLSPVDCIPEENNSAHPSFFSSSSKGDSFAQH
Procedure, shortened: as §1

PKAcβ(h) = target: T4, PKAcβ(h) (Homo sapiens, UniProt P22694)
T4 construct: gene PRKACB
Procedure, shortened: as §1

PRP4(h) = target: T5, PRP4(h) (Homo sapiens, UniProt Q13523)
T5 construct: gene PRP4K
Procedure, shortened: as §1

SNRK(h) = target: T6, SNRK(h) (Homo sapiens, UniProt Q9NRH2)
T6 sequence (Q9NRH2 1-765): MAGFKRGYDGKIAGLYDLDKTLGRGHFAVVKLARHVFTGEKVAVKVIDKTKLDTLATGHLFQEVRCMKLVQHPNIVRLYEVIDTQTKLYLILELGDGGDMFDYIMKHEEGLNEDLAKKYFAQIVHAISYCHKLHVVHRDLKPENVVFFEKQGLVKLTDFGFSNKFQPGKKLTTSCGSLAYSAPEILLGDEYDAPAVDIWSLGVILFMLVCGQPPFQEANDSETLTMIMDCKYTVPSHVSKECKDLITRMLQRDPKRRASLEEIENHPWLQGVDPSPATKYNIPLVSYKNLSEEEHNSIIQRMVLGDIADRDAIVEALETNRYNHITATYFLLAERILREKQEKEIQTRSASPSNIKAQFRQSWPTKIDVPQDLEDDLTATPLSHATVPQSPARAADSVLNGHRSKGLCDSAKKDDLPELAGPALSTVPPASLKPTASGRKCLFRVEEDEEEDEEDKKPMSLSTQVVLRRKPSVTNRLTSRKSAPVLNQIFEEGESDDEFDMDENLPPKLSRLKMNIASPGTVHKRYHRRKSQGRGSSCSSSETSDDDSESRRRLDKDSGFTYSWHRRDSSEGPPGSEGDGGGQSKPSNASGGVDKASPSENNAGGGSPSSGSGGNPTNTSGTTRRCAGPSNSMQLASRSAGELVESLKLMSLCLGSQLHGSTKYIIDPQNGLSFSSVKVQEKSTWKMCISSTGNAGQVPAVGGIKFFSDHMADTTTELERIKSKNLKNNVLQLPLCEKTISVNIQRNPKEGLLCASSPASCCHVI
Procedure, shortened: as §1

[1] = read-out: Residual activity (%) Spautin-1 5aa
[2] = read-out: Residual activity (%) 5as
[3] = read-out: Residual activity (%) 5at
[4] = read-out: Residual activity (%) 5ay

T1 sequence (Q05397 whole entry): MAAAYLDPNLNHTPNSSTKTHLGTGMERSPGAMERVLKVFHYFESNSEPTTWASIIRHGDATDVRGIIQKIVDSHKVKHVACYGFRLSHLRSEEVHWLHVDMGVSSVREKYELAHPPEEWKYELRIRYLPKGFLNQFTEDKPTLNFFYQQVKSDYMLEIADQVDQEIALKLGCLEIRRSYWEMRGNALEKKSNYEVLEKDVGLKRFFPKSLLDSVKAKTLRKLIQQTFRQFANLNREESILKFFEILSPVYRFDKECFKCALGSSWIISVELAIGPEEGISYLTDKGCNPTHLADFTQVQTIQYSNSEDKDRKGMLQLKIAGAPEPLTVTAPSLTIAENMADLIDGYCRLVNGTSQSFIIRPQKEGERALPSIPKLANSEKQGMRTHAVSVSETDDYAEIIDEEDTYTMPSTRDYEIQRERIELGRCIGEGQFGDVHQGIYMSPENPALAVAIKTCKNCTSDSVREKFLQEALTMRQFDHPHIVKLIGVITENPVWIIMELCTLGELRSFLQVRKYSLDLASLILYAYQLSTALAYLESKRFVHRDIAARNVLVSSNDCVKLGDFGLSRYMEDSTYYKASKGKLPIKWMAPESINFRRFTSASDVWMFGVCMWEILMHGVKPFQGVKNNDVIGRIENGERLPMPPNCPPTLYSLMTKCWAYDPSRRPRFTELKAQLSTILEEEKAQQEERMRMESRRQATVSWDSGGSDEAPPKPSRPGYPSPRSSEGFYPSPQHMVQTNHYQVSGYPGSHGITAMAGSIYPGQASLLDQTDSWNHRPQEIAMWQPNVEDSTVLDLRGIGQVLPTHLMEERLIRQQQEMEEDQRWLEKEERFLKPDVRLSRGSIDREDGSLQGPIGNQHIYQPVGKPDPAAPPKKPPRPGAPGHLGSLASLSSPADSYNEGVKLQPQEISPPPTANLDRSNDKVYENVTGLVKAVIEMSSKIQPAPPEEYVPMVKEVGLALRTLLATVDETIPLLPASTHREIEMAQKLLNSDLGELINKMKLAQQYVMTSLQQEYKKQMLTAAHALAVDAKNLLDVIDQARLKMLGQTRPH
T2 sequence (P53779 whole entry): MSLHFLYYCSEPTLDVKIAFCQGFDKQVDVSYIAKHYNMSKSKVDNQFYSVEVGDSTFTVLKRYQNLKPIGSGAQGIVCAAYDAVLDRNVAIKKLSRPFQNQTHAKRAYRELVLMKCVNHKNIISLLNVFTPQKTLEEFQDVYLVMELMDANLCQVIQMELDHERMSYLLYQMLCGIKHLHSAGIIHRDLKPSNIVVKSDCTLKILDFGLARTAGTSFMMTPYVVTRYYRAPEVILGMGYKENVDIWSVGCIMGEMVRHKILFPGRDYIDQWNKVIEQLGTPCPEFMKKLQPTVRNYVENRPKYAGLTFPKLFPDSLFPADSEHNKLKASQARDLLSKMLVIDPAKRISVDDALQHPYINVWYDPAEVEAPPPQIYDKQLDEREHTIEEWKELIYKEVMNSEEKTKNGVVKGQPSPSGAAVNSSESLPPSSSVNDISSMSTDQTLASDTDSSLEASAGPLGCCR
T5 sequence (Q13523 whole entry): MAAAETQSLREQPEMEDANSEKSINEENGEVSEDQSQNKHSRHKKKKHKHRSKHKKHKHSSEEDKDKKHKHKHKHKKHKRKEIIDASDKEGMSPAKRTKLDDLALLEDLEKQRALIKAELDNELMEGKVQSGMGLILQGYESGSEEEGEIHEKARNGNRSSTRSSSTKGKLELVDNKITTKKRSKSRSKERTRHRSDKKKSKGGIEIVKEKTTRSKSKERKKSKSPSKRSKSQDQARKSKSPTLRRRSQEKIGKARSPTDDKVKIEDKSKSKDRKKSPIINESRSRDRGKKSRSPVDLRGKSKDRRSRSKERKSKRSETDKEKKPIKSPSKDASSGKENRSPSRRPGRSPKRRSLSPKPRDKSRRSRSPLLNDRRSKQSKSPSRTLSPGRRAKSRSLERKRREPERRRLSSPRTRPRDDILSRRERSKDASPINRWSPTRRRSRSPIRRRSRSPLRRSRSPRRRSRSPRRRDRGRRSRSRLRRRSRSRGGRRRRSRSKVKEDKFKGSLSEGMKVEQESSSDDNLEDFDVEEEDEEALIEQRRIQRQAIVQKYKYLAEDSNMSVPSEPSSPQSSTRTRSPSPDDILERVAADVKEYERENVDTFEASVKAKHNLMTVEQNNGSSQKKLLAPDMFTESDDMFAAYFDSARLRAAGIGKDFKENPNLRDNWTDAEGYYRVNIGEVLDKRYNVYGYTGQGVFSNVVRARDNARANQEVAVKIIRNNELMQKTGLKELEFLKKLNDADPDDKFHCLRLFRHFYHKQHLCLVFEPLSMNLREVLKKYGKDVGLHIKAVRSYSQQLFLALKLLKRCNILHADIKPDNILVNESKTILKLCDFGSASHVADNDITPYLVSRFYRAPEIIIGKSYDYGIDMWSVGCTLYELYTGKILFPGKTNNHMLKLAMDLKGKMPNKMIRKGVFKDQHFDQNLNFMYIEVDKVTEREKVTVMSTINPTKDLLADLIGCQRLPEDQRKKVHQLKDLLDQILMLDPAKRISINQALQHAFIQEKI

For `Fc1ccc(CNc2ncnc3ccc(F)cc23)cc1` [5aa, 6-Fluoro-N-(4-fluorobenzyl)-4-Quinazolinamine], the remaining activity at 10 µM (FAK(h); [1]) was 84%, the remaining activity at 10 µM (JNK3(h); [1]) was 90% and the remaining activity at 10 µM (MYO3B(h); [1]) was 89%. It also gave a remaining activity at 10 µM (PKAcβ(h); [1]) of 87%, a remaining activity at 10 µM (PRP4(h); [1]) of 104% and a remaining activity at 10 µM (SNRK(h); [1]) of 103%.
For `Fc1ccc(CCNc2ncnc3ccc(F)cc23)cc1` [5as, 6-Fluoro-N-[2-(4-Fluorophenyl)Ethyl]-4-Quinazolinamine], the remaining activity at 10 µM (FAK(h); [2]) was 88%, the remaining activity at 10 µM (JNK3(h); [2]) was 98% and the remaining activity at 10 µM (MYO3B(h); [2]) was 84%. For the same compound, the remaining activity at 10 µM (PKAcβ(h); [2]) was 97%, the remaining activity at 10 µM (PRP4(h); [2]) was 105% and the remaining activity at 10 µM (SNRK(h); [2]) was 104%.
Compound `Fc1ccc2ncnc(NCCc3ccc(Cl)cc3)c2c1` [5at, N-[2-(4-Chlorophenyl)Ethyl]-6-Fluoro-4-Quinazolinamine] has a remaining activity at 10 µM (FAK(h); [3]) of 83%, a remaining activity at 10 µM (JNK3(h); [3]) of 107% and a remaining activity at 10 µM (MYO3B(h); [3]) of 87%. It also gave a remaining activity at 10 µM (PKAcβ(h); [3]) of 107%, a remaining activity at 10 µM (PRP4(h); [3]) of 99% and a remaining activity at 10 µM (SNRK(h); [3]) of 103%.
Compound `COc1ccc2ncnc(Nc3cccc(F)c3)c2c1` [5ay, N-(3-Fluorophenyl)-6-Methoxy-4-Quinazolinamine] has a remaining activity at 10 µM (FAK(h); [4]) of 84%, a remaining activity at 10 µM (JNK3(h); [4]) of 90% and a remaining activity at 10 µM (MYO3B(h); [4]) of 88%. For the same compound, the remaining activity at 10 µM (PKAcβ(h); [4]) was 85%, the remaining activity at 10 µM (PRP4(h); [4]) was 100% and the remaining activity at 10 µM (SNRK(h); [4]) was 79%.
